Measurements taken from ChEMBL document CHEMBL5579801, “Novel orexin receptor agonists based on arene- or pyridine-fused 1,3-dihydro-2H-imidazole-2-imines” (Bioorg Med Chem Lett, 2024).
Values belong to the compound of their own block, whether it stands above or below them.

Columns and labels:
[1] = Tmax in mouse brain at 5 mg/kg,iv administration; type: ADME, organism-based
[2] = Tmax in mouse plasma at 5 mg/kg,iv administration; type: ADME, organism-based
[3] = Cmax in mouse plasma at 5 mg/kg,iv administration; type: ADME, organism-based
HEK293 = experiment: Cytotoxicity against human HEK293 cells upto 100 uM incubated for 3 days; type: toxicity, cell-based; conditions: hek293, 72 h, time 3 day
[4] = Cmax in mouse brain at 5 mg/kg,iv administration; type: ADME, organism-based
[5] = Half life in mouse brain at 5 mg/kg,iv administration; type: ADME, organism-based
[6] = AUClast in mouse plasma at 5 mg/kg,iv administration; type: ADME, organism-based
[7] = AUClast in mouse brain at 5 mg/kg,iv administration; type: ADME, organism-based; conditions: in vivo
[8] = Half life in mouse plasma at 5 mg/kg,iv administration; type: ADME, organism-based
Orexin receptor type 2 = target: T1, Orexin receptor type 2 (Homo sapiens, UniProt O43614); experiment: Agonist activity at human OX2R expressed in human HEK293 cells co-transfected with human Galphaq assessed as accumulation of inositol phosphate by scintillation counter analysis
T1 sequence (O43614 whole entry): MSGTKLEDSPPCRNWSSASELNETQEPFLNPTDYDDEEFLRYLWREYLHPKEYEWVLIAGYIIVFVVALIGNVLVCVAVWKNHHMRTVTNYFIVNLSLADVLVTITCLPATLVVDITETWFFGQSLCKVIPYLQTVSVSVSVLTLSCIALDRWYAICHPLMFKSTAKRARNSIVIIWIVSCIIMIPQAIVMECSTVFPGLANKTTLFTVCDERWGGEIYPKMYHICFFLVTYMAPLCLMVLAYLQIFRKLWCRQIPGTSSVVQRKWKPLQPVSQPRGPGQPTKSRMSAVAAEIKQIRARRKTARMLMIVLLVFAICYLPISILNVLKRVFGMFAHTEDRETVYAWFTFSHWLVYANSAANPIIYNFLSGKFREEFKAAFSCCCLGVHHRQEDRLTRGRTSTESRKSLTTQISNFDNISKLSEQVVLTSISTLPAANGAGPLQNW

[9] = Ratio of Cmax in mouse brain to plasma at 5 mg/kg,iv administration; type: ADME, organism-based
[10] = Ratio of AUC in mouse brain to plasma at 5 mg/kg,iv administration; type: ADME, organism-based; conditions: read-out: Ratio AUC

- Tmax [1]: 10 min
- Tmax [2]: 10 min
- Cmax [3]: 651 ng/mL
- Cmax [4]: 218 ng/g
- half-life [5]: 47 min
- AUC(0-t) [6]: 518 ng·h/mL
- AUClast [7]: 12554 ng·min/g
- half-life [8]: 40 min
Structure (SMILES): Cc1ccc(C[C@@H](C(=O)N2CC(C#N)C2)n2c(=N)n(C(C)c3ccc(C)cc3)c3cccnc32)cc1 (some centres not stated)
- Activity (HEK293): Non-Toxic

- EC50 (Orexin receptor type 2): > 10 µM
Structure (SMILES): Cc1ccc(C[C@@H](CNC(=O)c2ccco2)n2c(=N)n(Cc3ccc(C)cc3)c3ccccc32)cc1

- EC50 (Orexin receptor type 2): 3.63 µM
Structure (SMILES): COCCCOC[C@H](Cc1ccc(C)cc1)n1c(=N)n(Cc2ccc(C)cc2)c2ccccc21

- EC50 (Orexin receptor type 2): 6.46 µM
Structure (SMILES): Cc1ccc(C[C@@H](CNC(=O)CC(F)(F)F)n2c(=N)n(Cc3ccc(C)cc3)c3ccccc32)cc1

- EC50 (Orexin receptor type 2): > 10 µM
Structure (SMILES): Cc1ccc(C[C@@H](CNC(=O)c2cccc(C)n2)n2c(=N)n(Cc3ccc(C)cc3)c3ccccc32)cc1

- EC50 (Orexin receptor type 2): 5.37 µM
Structure (SMILES): Cc1ccc(C[C@@H](CSC(C)C)n2c(=N)n(Cc3ccc(C)cc3)c3ccccc32)cc1

- EC50 (Orexin receptor type 2): > 10 µM
Structure (SMILES): Cc1ccc(C[C@@H](CNC(=O)c2ncccc2C)n2c(=N)n(Cc3ccc(C)cc3)c3ccccc32)cc1

- EC50 (Orexin receptor type 2): > 10 µM
Structure (SMILES): Cc1ccc(C[C@@H](CO)n2c(=N)n(Cc3ccc(C)cc3)c3ccc(C(F)(F)F)cc32)cc1

- EC50 (Orexin receptor type 2): > 10 µM
Structure (SMILES): Cc1ccc(C[C@@H](CO)n2c(=N)n(Cc3ccc(C)cc3)c3cc(Cl)ccc32)cc1

- EC50 (Orexin receptor type 2): 2.34 µM
Structure (SMILES): CSC[C@H](Cc1ccc(C)cc1)n1c(=N)n(Cc2ccc(C)cc2)c2ccccc21

- EC50 (Orexin receptor type 2): > 10 µM
Structure (SMILES): Cc1ccc(C[C@@H](CO)n2c(=N)n(Cc3ccc(C)cc3)c3ccc(C)cc32)cc1

- EC50 (Orexin receptor type 2): 7.08 µM
Structure (SMILES): Cc1ccc(C[C@@H](C[S+](C)[O-])n2c(=N)n(Cc3ccc(C)cc3)c3ccccc32)cc1 (some centres not stated)

- EC50 (Orexin receptor type 2): 3.98 µM
Structure (SMILES): CCSC[C@H](Cc1ccc(C)cc1)n1c(=N)n(Cc2ccc(C)cc2)c2ccccc21

- EC50 (Orexin receptor type 2): 4.47 µM
Structure (SMILES): Cc1ccc(C[C@@H](CS(C)(=O)=O)n2c(=N)n(Cc3ccc(C)cc3)c3ccccc32)cc1

- EC50 (Orexin receptor type 2): 3.98 µM
Structure (SMILES): Cc1ccc(C[C@@H](COCCN(C)C)n2c(=N)n(Cc3ccc(C)cc3)c3ccccc32)cc1

- EC50 (Orexin receptor type 2): 6.46 µM
Structure (SMILES): Cc1ccc(C[C@@H](CNS(=O)(=O)C(F)F)n2c(=N)n(Cc3ccc(C)cc3)c3ccccc32)cc1

- EC50 (Orexin receptor type 2): 1.41 µM
Structure (SMILES): COC[C@H](Cc1ccc(C)cc1)n1c(=N)n(C(c2ccc(C)cc2)C(F)(F)F)c2ccccc21 (mixture of isomers)

- EC50 (Orexin receptor type 2): 0.661 µM
Structure (SMILES): Cc1ccc(C[C@@H](CNC(=O)CO)n2c(=N)n(C(C)c3ccc(C)cc3)c3ccccc32)cc1 (mixture of isomers)

- EC50 (Orexin receptor type 2): > 10 µM
Structure (SMILES): COC[C@H](Cc1ccc(C)cc1)n1c(=N)n(C(c2ccc(C)cc2)C2CCC2)c2ccccc21 (mixture of isomers)

- Kp [9]: 0.24
- Tmax [1]: 10 min
- Tmax [2]: 10 min
- Cmax [3]: 225 ng/mL
- Cmax [4]: 53.2 ng/g
- Kp [10]: 0.48
- half-life [5]: 234 min
- AUC(0-t) [6]: 295 ng·h/mL
- AUClast [7]: 8586 ng·min/g
- half-life [8]: 185 min
- EC50 (Orexin receptor type 2): 0.661 µM
Structure (SMILES): Cc1ccc(C[C@@H](C(=O)N2CC(C#N)C2)n2c(=N)n(C(C)c3ccc(C)cc3)c3ccccc32)cc1 (mixture of isomers)
- Activity (HEK293): Non-Toxic

- EC50 (Orexin receptor type 2): 1.95 µM
Structure (SMILES): Cc1ccc(C[C@@H](CNC(=O)CO)n2c(=N)n(C(c3ccc(C)cc3)C(C)C)c3ccccc32)cc1 (mixture of isomers)

- EC50 (Orexin receptor type 2): > 10 µM
Structure (SMILES): Cc1ccc(C[C@@H](C(=O)N2CC3(CNC3)C2)n2c(=N)n(C(C)c3ccc(C)cc3)c3ccccc32)cc1 (mixture of isomers)

- EC50 (Orexin receptor type 2): 8.13 µM
Structure (SMILES): CCC(=O)NCC(Cc1ccc(C)cc1)n1c(=N)n(Cc2ccc(C)cc2)c2ccccc21 (racemic)

- EC50 (Orexin receptor type 2): 5.25 µM
Structure (SMILES): Cc1ccc(CC(CNC(=O)C2CC2)n2c(=N)n(Cc3ccc(C)cc3)c3ccccc32)cc1 (racemic)

- EC50 (Orexin receptor type 2): 2.45 µM
Structure (SMILES): Cc1ccc(CC(CNC=O)n2c(=N)n(Cc3ccc(C)cc3)c3ccccc32)cc1 (racemic)

- EC50 (Orexin receptor type 2): > 10 µM
Structure (SMILES): Cc1ccc(CC(CNC(=O)Cc2ccccc2)n2c(=N)n(Cc3ccc(C)cc3)c3ccccc32)cc1 (racemic)

- EC50 (Orexin receptor type 2): 3.31 µM
Structure (SMILES): Cc1ccc(CC(CNC(=O)CN(C)C)n2c(=N)n(Cc3ccc(C)cc3)c3ccccc32)cc1 (racemic)

- EC50 (Orexin receptor type 2): > 10 µM
Structure (SMILES): Cc1ccc(CC(CNC(=O)c2ccccc2)n2c(=N)n(Cc3ccc(C)cc3)c3ccccc32)cc1 (racemic)

- EC50 (Orexin receptor type 2): 4.17 µM
Structure (SMILES): Cc1ccc(CC(CNC(=O)N(C)C)n2c(=N)n(Cc3ccc(C)cc3)c3ccccc32)cc1 (racemic)

- EC50 (Orexin receptor type 2): 4.68 µM
Structure (SMILES): Cc1ccc(CC(CNC(=O)Cc2cccnc2)n2c(=N)n(Cc3ccc(C)cc3)c3ccccc32)cc1 (racemic)

- EC50 (Orexin receptor type 2): > 10 µM
Structure (SMILES): Cc1ccc(CC(CNS(=O)(=O)C(F)(F)F)n2c(=N)n(Cc3ccc(C)cc3)c3ccccc32)cc1 (racemic)

- EC50 (Orexin receptor type 2): > 10 µM
Structure (SMILES): Cc1ccc(CC(CNC(=O)CCCO)n2c(=N)n(Cc3ccc(C)cc3)c3ccccc32)cc1 (racemic)

- EC50 (Orexin receptor type 2): 6.61 µM
Structure (SMILES): Cc1ccc(CC(CNC(=O)C(F)(F)F)n2c(=N)n(Cc3ccc(C)cc3)c3ccccc32)cc1 (racemic)

- EC50 (Orexin receptor type 2): 1.86 µM
Structure (SMILES): COC(=O)NCC(Cc1ccc(C)cc1)n1c(=N)n(Cc2ccc(C)cc2)c2ccccc21 (racemic)

- EC50 (Orexin receptor type 2): > 10 µM
Structure (SMILES): Cc1ccc(CC(CNC(=O)Cc2ncccn2)n2c(=N)n(Cc3ccc(C)cc3)c3ccccc32)cc1 (racemic)

- EC50 (Orexin receptor type 2): > 10 µM
Structure (SMILES): Cc1ccc(CC(CNC(=O)CN)n2c(=N)n(Cc3ccc(C)cc3)c3ccccc32)cc1 (racemic)

- EC50 (Orexin receptor type 2): 2.69 µM
Structure (SMILES): CCOC(=O)NCC(Cc1ccc(C)cc1)n1c(=N)n(Cc2ccc(C)cc2)c2ccccc21 (racemic)

- EC50 (Orexin receptor type 2): > 10 µM
Structure (SMILES): Cc1ccc(CC(CNC(=O)Cc2ccncc2)n2c(=N)n(Cc3ccc(C)cc3)c3ccccc32)cc1 (racemic)

- Kp [9]: 0.17
- Tmax [1]: 30 min
- Tmax [2]: 10 min
- Cmax [3]: 841 ng/mL
- Cmax [4]: 143 ng/g
- Kp [10]: 0.66
- half-life [5]: 134 min
- AUC(0-t) [6]: 986 ng·h/mL
- AUClast [7]: 38969 ng·min/g
- half-life [8]: 74 min
- EC50 (Orexin receptor type 2): 0.603 µM
Structure (SMILES): COC[C@H](Cc1ccc(C)cc1)n1c(=N)n(C(c2ccc(C)cc2)C2CC2)c2ccccc21 (stereo in doubt; 61b)
- Activity (HEK293): Non-Toxic

- EC50 (Orexin receptor type 2): 1.95 µM
Structure (SMILES): COC[C@H](Cc1ccc(C)cc1)n1c(=N)n(C(c2ccc(C)cc2)C2CC2)c2ccccc21 (stereo in doubt; 61c)

- EC50 (Orexin receptor type 2): 5.75 µM
Structure (SMILES): COCOC[C@H](Cc1ccc(C)cc1)n1c(=N)n(C(C)c2ccc(C)cc2)c2cccnc21 (stereo in doubt; 62b)

- Kp [9]: 3.32
- Tmax [1]: 10 min
- Tmax [2]: 10 min
- Cmax [3]: 741 ng/mL
- Cmax [4]: 2460 ng/g
- Kp [10]: 2.49
- half-life [5]: 34 min
- AUC(0-t) [6]: 673 ng·h/mL
- AUClast [7]: 100501 ng·min/g
- half-life [8]: 48 min
- EC50 (Orexin receptor type 2): 0.933 µM
Structure (SMILES): COCOC[C@H](Cc1ccc(C)cc1)n1c(=N)n(C(C)c2ccc(C)cc2)c2cccnc21 (stereo in doubt; 62c)
- Activity (HEK293): Non-Toxic

- EC50 (Orexin receptor type 2): 4.68 µM
Structure (SMILES): COCCOC[C@H](Cc1ccc(C)cc1)n1c(=N)n(C(C)c2ccc(C)cc2)c2cccnc21 (stereo in doubt; 63b)

- EC50 (Orexin receptor type 2): 0.339 µM
Structure (SMILES): COCCOC[C@H](Cc1ccc(C)cc1)n1c(=N)n(C(C)c2ccc(C)cc2)c2cccnc21 (stereo in doubt; 63c)

- EC50 (Orexin receptor type 2): 1.51 µM
Structure (SMILES): Cc1ccc(C[C@@H](CNC(=O)CO)n2c(=N)n(C(C)c3ccc(C)cc3)c3ccccc32)cc1 (stereo in doubt; 65b)

- Kp [9]: 0.026
- Tmax [1]: 30 min
- Tmax [2]: 10 min
- Cmax [3]: 600 ng/mL
- Cmax [4]: 15.3 ng/g
- Kp [10]: 0.27
- half-life [5]: 729 min
- AUC(0-t) [6]: 691 ng·h/mL
- AUClast [7]: 11291 ng·min/g
- half-life [8]: 230 min
- EC50 (Orexin receptor type 2): 0.437 µM
Structure (SMILES): Cc1ccc(C[C@@H](CNC(=O)CO)n2c(=N)n(C(C)c3ccc(C)cc3)c3ccccc32)cc1 (stereo in doubt; 65c)
- Activity (HEK293): Non-Toxic

- EC50 (Orexin receptor type 2): > 10 µM
Structure (SMILES): Cc1ccc(C[C@@H](CNC(=O)CO)n2c(=N)n(C(C)c3ccc(C)cc3)c3cccnc32)cc1 (stereo in doubt; 68b)

- EC50 (Orexin receptor type 2): 1.32 µM
Structure (SMILES): Cc1ccc(C[C@@H](CNC(=O)CO)n2c(=N)n(C(C)c3ccc(C)cc3)c3cccnc32)cc1 (stereo in doubt; 68c)

- EC50 (Orexin receptor type 2): 5.62 µM
Structure (SMILES): Cc1ccc(C[C@@H](COCCC#N)n2c(=N)n(C(C)c3ccc(C)cc3)c3cccnc32)cc1 (stereo in doubt; 69b)

- EC50 (Orexin receptor type 2): 0.372 µM
Structure (SMILES): Cc1ccc(C[C@@H](COCCC#N)n2c(=N)n(C(C)c3ccc(C)cc3)c3cccnc32)cc1 (stereo in doubt; 69c)
